These results are taken from patent US20090156577A1, “7-AMINO ALKYLIDENYL-HETEROCYCLIC QUINOLONES AND NAPHTHYRIDONES” (priority 2004, published 2009).

This experiment has as its system pathogenic bacteria. In words: MIC by microdilution broth method (NCCLS M7-A4), in vitro antibacterial activity. The format is cell-based. The procedure, abridged: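 MIC read after 35 °C incubation for 16–20 h relative to drug-free growth wells. Cation-adjusted Mueller-Hinton broth with two-fold compound dilutions, organisms at roughly 5×10^4 CFU/well final. Method follows NCCLS document M7-A4.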

The mark [1] stands for this setting: Staphylococcus aureus, Organism A: Staphylococcus aureus OC4172, read-out: MIC.
Where [2] appears, read: Streptococcus pneumoniae, ATCC49619, Organism E: Streptococcus pneumoniae ATCC 49619, read-out: MIC.
Setting [3] is: Streptococcus pneumoniae, Organism B: fluoroquinolone-resistant clinical isolate of Streptococcus pneumoniae (QRDR amino acid substitutions).
Where [4] appears, read: Streptococcus pneumoniae, Organism C: fluoroquinolone-resistant clinical isolate of Streptococcus pneumoniae (QRDR amino acid substitutions).
[5] abbreviates: Streptococcus pneumoniae, Organism D: fluoroquinolone-resistant clinical isolate of Streptococcus pneumoniae (QRDR amino acid substitutions).

Structures are written as SMILES. ≈ marks a conversion by molar mass, not a printed value. Counter-ions that a name gives are not always drawn. Like-named read-outs stand apart in the source and are kept apart here.

As for `NCC(Cl)=C1CN(c2c(F)cc3c(=O)c(C(=O)O)cn(-c4nc(N)c(F)cc4F)c3c2Cl)C1` [Compound 268, 7-[3-(2-Amino-1-chloro-ethylidene)-azetidin-1-yl]-1-(6-amino-3,5-difluoro-pyridin-2-yl)-8-chloro-6-fluoro-4-oxo-1,4-dihydro-quinoline-3-carboxylic Acid], the MIC is, setting by setting: under setting [1], not above 0.015 µg/mL; under setting [2], 0.03 µg/mL (≈ 0.06 µM); under setting [3], 0.06 µg/mL (≈ 0.12 µM); under setting [4], 0.12 µg/mL (≈ 0.24 µM); under setting [5], 0.12 µg/mL (≈ 0.24 µM).
On to `NCC(F)=C1CN(c2c(F)cc3c(=O)c(C(=O)O)cn(-c4nc(N)c(F)cc4F)c3c2Cl)C1` [Compound 269, 1-(6-Amino-3,5-difluoro-pyridin-2-yl)-7-[3-(2-amino-1-fluoro-ethylidene)-azetidin-1-yl]-8-chloro-6-fluoro-4-oxo-1,4-dihydro-quinoline-3-carboxylic acid], for which the MIC under setting [1] was not above 0.015 µg/mL, the minimal inhibitory concentration (MIC) under setting [2] stood at 0.03 µg/mL (≈ 0.062 µM), it took 0.25 µg/mL (≈ 0.517 µM) to inhibit growth under setting [3] (MIC) and the MIC under setting [4] stood at 0.06 µg/mL (≈ 0.124 µM).
As to `NCC(Cl)=C1CCN(c2c(F)cc3c(=O)c(C(=O)O)cn(-c4nc(N)c(F)cc4F)c3c2Cl)CC1` [Compound 270, 7-[4-(2-Amino-1-chloro-ethylidene)-piperidin-1-yl}-1-(6-amino-3,5-difluoropyridin-2-yl)-8-chloro-6-fluoro-4-oxo-1,4-dihydro-quinoline-3-carboxylic Acid], the MIC came out at 0.06 µg/mL (≈ 0.114 µM) under setting [1], 0.5 µg/mL (≈ 0.946 µM) under setting [2], 4 µg/mL (≈ 7.57 µM) under setting [4] and 2 µg/mL (≈ 3.79 µM) under setting [5].
As to `NCC(Cl)=C1CCN(c2nc3c(cc2F)c(=O)c(C(=O)O)cn3-c2ccc(F)cc2F)CC1` [Compound 271, 7-[4-(2-Amino-1-chloro-ethylidene)-piperidin-1-yl]-1-(2,4-difluoro-phenyl)-6-fluoro-4-oxo-1,4-dihydro-[1,8]naphthyridine-3-carboxylic acid], the MIC is, setting by setting: under setting [1], not above 0.015 µg/mL; under setting [2], 0.12 µg/mL (≈ 0.251 µM); under setting [3], 1 µg/mL (≈ 2.09 µM); under setting [4], 1 µg/mL (≈ 2.09 µM); under setting [5], 1 µg/mL (≈ 2.09 µM).
With `NCC(F)=C1CN(c2cc3c(cc2F)c(=O)c(C(=O)O)cn3C2CC2)C1` [Compound 272, 7-[3-(2-amino-1-fluoro-ethylidene)-azetidin-1-yl]-1-cyclopropyl-6-fluoro-4-oxo-1,4-dihydro-quinoline-3-carboxylic acid], the MIC is not above 0.015 µg/mL under setting [1], 0.5 µg/mL (≈ 1.38 µM) under setting [2], 4 µg/mL (≈ 11.1 µM) under setting [3] and 0.5 µg/mL (≈ 1.38 µM) under setting [4].
Regarding `COc1c(N2CC(=C(F)CN)C2)c(F)cc2c(=O)c(C(=O)O)cn(C3CC3)c12` [Compound 273, 7-[3-(2-amino-1-fluoro-ethylidene)-azetidin-1-yl]-1-cyclopropyl-6-fluoro-8-methoxy-4-oxo-1,4-dihydro-quinoline-3-carboxylic acid], the MIC under setting [1] came out at 0.03 µg/mL (≈ 0.0767 µM), the MIC under setting [2] amounted to 4 µg/mL (≈ 10.2 µM), it took 4 µg/mL (≈ 10.2 µM) to inhibit growth under setting [3] (MIC) and the minimal inhibitory concentration (MIC) under setting [4] worked out at 0.5 µg/mL (≈ 1.28 µM).
In the case of `COc1c(N2CC(=C(F)CN)C2)ccc2c(=O)c(C(=O)O)cn(C3CC3)c12` [Compound 274, 7-[3-(2-amino-1-fluoro-ethylidene)-azetidin-1-yl]-1-cyclopropyl-8-methoxy-4-oxo-1,4-dihydro-quinoline-3-carboxylic acid], the MIC is, setting by setting: under setting [1], 0.06 µg/mL (≈ 0.161 µM); under setting [2], 1 µg/mL (≈ 2.68 µM); under setting [3], 4 µg/mL (≈ 10.7 µM); under setting [4], 1 µg/mL (≈ 2.68 µM).
Regarding `COc1c(N2CCC(=C(Cl)CN)CC2)ccc2c(=O)c(C(=O)O)cn(C3CC3)c12` [Compound 275, 7-[4-(2-Amino-1-chloro-ethylidene)-piperidin-1-yl]-1-cyclopropyl-8-methoxy-4-oxo-1,4-dihydro-quinoline-3-carboxylic acid], the MIC is, setting by setting: under setting [1], 0.03 µg/mL (≈ 0.0718 µM); under setting [2], 0.12 µg/mL (≈ 0.287 µM); under setting [3], 1 µg/mL (≈ 2.39 µM); under setting [4], 1 µg/mL (≈ 2.39 µM); under setting [5], 1 µg/mL (≈ 2.39 µM).
Consider `C[C@H]1COc2c(N3CC(=C(F)CN)C3)c(F)cc3c(=O)c(C(=O)O)cn1c23` [Compound 276, 9-[3-(2-Amino-1-fluoro-ethylidene)-azetidin-1-yl]-8-fluoro-(3S)-3-methyl-6-oxo-2,3-dihydro-6H-1-oxa-3a-aza-phenalene-5-carboxylic acid], for which the MIC under setting [1] is not above 0.015 µg/mL; the MIC under setting [2] stood at 0.25 µg/mL (≈ 0.663 µM); the MIC under setting [3] came to 0.5 µg/mL (≈ 1.33 µM); the MIC under setting [4] is 2 µg/mL (≈ 5.3 µM); the lowest concentration to inhibit growth under setting [5] (MIC) was 4 µg/mL (≈ 10.6 µM).
For the compound `C[C@H]1COc2c(N3CCC(=C(Cl)CN)CC3)c(F)cc3c(=O)c(C(=O)O)cn1c23` [Compound 277, 9-[4-(2-Amino-1-chloro-ethylidene)-piperidin-1-yl]-8-fluoro-(3S)-3-methyl-6-oxo-2,3-dihydro-6H-1-oxa-3a-aza-phenalene-5-carboxylic acid], the MIC is, setting by setting: under setting [1], not above 0.015 µg/mL; under setting [2], 0.03 µg/mL (≈ 0.0711 µM); under setting [3], 0.25 µg/mL (≈ 0.593 µM); under setting [4], 0.25 µg/mL (≈ 0.593 µM); under setting [5], 0.5 µg/mL (≈ 1.19 µM).
For the compound `N#CC(CN)=C1CCN(c2nc3c(cc2F)c(=O)c(C(=O)O)cn3C2CC2)CC1` [Compound 283, 7-[4-(2-Amino-1-cyano-ethylidene)-piperidin-1-yl]-1-cyclopropyl-6-fluoro-4-oxo-1,4-dihydro-[1,8]naphthyridine-3-carboxylic Acid], the MIC under setting [1] is 0.25 µg/mL (≈ 0.629 µM); the MIC under setting [2] turned out to be 0.5 µg/mL (≈ 1.26 µM); the MIC under setting [3] is 2 µg/mL (≈ 5.03 µM); it took 4 µg/mL (≈ 10.1 µM) to inhibit growth under setting [4] (MIC); the MIC under setting [5] stood at 8 µg/mL (≈ 20.1 µM).
For the compound `N#CC(CN)=C1CCN(c2cc3c(cc2F)c(=O)c(C(=O)O)cn3C2CC2)CC1` [Compound 285, 7-[4-(2-Amino-1-cyano-ethylidene)-piperidin-1-yl]-1-cyclopropyl-6-fluoro-4-oxo-1,4-dihydro-quinoline-3-carboxylic Acid], the MIC was 0.25 µg/mL (≈ 0.631 µM) under setting [1], 1 µg/mL (≈ 2.52 µM) under setting [2], 8 µg/mL (≈ 20.2 µM) under setting [4] and more than 16 µg/mL under setting [5].
Consider `NCC(C(=O)O)=C1CCN(c2nc3c(cc2F)c(=O)c(C(=O)O)cn3C2CC2)CC1` [Compound 286, 7-[4-(2-Amino-1-carboxy-ethylidene)-piperidin-1-yl]-1-cyclopropyl-6-fluoro-4-oxo-1,4-dihydro-[1,8]naphthyridine-3-carboxylic Acid], for which the MIC reads like this: under setting [1], 4 µg/mL (≈ 9.61 µM); under setting [2], 16 µg/mL (≈ 38.4 µM); under setting [4], more than 16 µg/mL; under setting [5], more than 16 µg/mL.
`NCCNCC(Cl)=C1CCN(c2nc3c(cc2F)c(=O)c(C(=O)O)cn3C2CC2)CC1.O=C(O)C(F)(F)F` [Compound 289, 7-{4-[2-(2-Amino-ethylamino)-1-chloro-ethylidene]-piperidin-1-yl}-1-cyclopropyl-6-fluoro-4-oxo-1,4-dihydro-[1,8]naphthyridine-3-carboxylic Acid Trifluoroacetic Acid Salt]: the MIC by setting is: under setting [1], 0.5 µg/mL; under setting [2], 0.25 µg/mL; under setting [4], 1 µg/mL; under setting [5], 2 µg/mL.
Turning to `O=CN1CCN(CC(Cl)=C2CCN(c3nc4c(cc3F)c(=O)c(C(=O)O)cn4C3CC3)CC2)CC1` [Compound 291, 7-{4-[1-Chloro-2-(4-formyl)-piperazin-1-yl-ethylidene]-piperidin-1-yl}-1-cyclopropyl-6-fluoro-4-oxo-1,4-dihydro-[1,8]naphthyridine-3-carboxylic Acid Trifluoroacetic Acid Salt], the MIC under setting [1] is 2 µg/mL, the MIC under setting [2] stood at 8 µg/mL, the MIC under setting [4] is more than 16 µg/mL and inhibition of growth under setting [5] (MIC) required 8 µg/mL.
On to `O=C(O)c1cn(C2CC2)c2nc(N3CCC(=C(Cl)CN4CCNCC4)CC3)c(F)cc2c1=O` [Compound 292, 7-[4-(1-chloro-2-piperazin-1-yl-ethylidene)-piperidin-1-yl]-1-cyclopropyl-6-fluoro-4-oxo-1,4-dihydro-[1,8]naphthyridine-3-carboxylic Acid Trifluoroacetic Acid Salt], for which the MIC is 1 µg/mL (Staphylococcus aureus, Organism A: Staphylococcus aureus OC4172); 4 µg/mL (Streptococcus pneumoniae, ATCC49619, Organism E: Streptococcus pneumoniae ATCC 49619); more than 16 µg/mL under setting [4]; 16 µg/mL under setting [5].
For the compound `O=C(O)C(F)(F)F.O=C(O)c1cn(C2CC2)c2nc(N3CCC(=C(F)CN4CCNCC4)CC3)c(F)cc2c1=O` [Compound 294, 1-Cyclopropyl-6-fluoro-7-[4-(1-fluoro-2-piperazin-1-yl-ethylidene)-piperidin-1-yl]-4-oxo-1,4-dihydro-[1,8]naphthyridine-3-carboxylic Acid Trifluoroacetic Acid Salt], the MIC reads like this: under setting [1], 2 µg/mL; under setting [2], 8 µg/mL; under setting [3], more than 16 µg/mL; under setting [4], more than 16 µg/mL; under setting [5], more than 16 µg/mL.
For `C[C@H]1COc2c(N3CCC(=C(F)CN(C)C)CC3)c(F)cc3c(=O)c(C(=O)O)cn1c23` [Compound 295, 9-[4-(2-Dimethylamino-1-fluoro-ethylidene)-piperidin-1-yl]-8-fluoro-(3S)-3-methyl-6-oxo-2,3-dihydro-6H-1-oxa-3a-aza-phenalene-5-carboxylic Acid], the MIC is, setting by setting: under setting [1], 0.5 µg/mL (≈ 1.15 µM); under setting [2], 2 µg/mL (≈ 4.61 µM); under setting [3], 16 µg/mL (≈ 36.9 µM); under setting [4], 16 µg/mL (≈ 36.9 µM); under setting [5], 8 µg/mL (≈ 18.5 µM).
`C/C(CN)=C1\CCCN(c2nc3c(cc2F)c(=O)c(C(=O)O)cn3C2CC2)C1.O=C(O)C(F)(F)F` [Compound 297, (Z)-7-[3-(1-Amino-2-propylidene)-piperidin-1-yl]-1-cyclopropyl-6-fluoro-4-oxo-1,4-dihydro-[1,8]naphthyridine-3-carboxylic Acid Trifluoroacetic Acid Salt]: the MIC reads like this: under setting [1], 0.25 µg/mL; under setting [2], 1 µg/mL; under setting [3], 16 µg/mL; under setting [4], 16 µg/mL; under setting [5], 16 µg/mL.

Broadly, the MIC is the lowest concentration found to suppress growth.
